Some test systems named below: T-47D breast; MCF7 breast; MDA-MB-231 breast; DU-145 prostate; BT-549 breast; MDA-N; SF-539 CNS; TK-10 renal; KM20L2 colon; DLD-1 colon; M19-MEL melanoma; SNB-78 CNS; DMS 273 small cell lung.
Common to all, as to assay: NCI anticancer screen, dose series, 48 h

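1) Cells in 96-well plates. 2) Compound, 48 h, 5 concentrations. 3) Linear interpolation between surrounding doses. 4) Unreached endpoint = highest concentration. GI50 = concentration required for 50% inhibition of growth. TGI is the concentration that stops growth completely.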 Some results are limits rather than exact numbers.

`CC(C)(N)CO[C@H]1C[C@H]2CC[C@@]1(C)C2(C)C`: the TGI in the test on T-47D breast was 35.9 µM; with MCF7 breast, 37.1 µM; in the test with MDA-MB-231 breast, 36.5 µM; in the test on DU-145 prostate it was 73.8 µM; with BT-549 breast, 60.5 µM; in the test with MDA-N it was 30.2 µM. The TGI was 41 µM in the test on SF-539 CNS and 40 µM in the test on TK-10 renal.
Take `COc1ccc(NS(=O)c2ccc(-c3ccccc3)cc2)cc1` (stereo unspecified): the TGI with MCF7 breast, in the test on MDA-MB-231 breast, with DU-145 prostate, in the test on MDA-N, in the test with SF-539 CNS and with TK-10 renal was above 100 µM throughout.
For `NCC[Se][Se]CCN`, the TGI with T-47D breast is 64.4 µM; in the test on MCF7 breast, 33.1 µM; in the test with MDA-MB-231 breast, 25.7 µM; with DU-145 prostate, 26.4 µM; with BT-549 breast, 27.8 µM; in the test on MDA-N it was 23.4 µM. For the same compound, the TGI in the test with SF-539 CNS came out at 34.4 µM; in the test with TK-10 renal, 30.7 µM.
Regarding `O=S1(=O)NNC(=NCc2ccc(Cl)c(Cl)c2)c2ccccc21`, the TGI with KM20L2 colon, with DLD-1 colon, in the test with M19-MEL melanoma, with SNB-78 CNS, with SF-539 CNS and in the test on DMS 273 small cell lung was above 100 µM in each case.
With `COc1cc2cc[n+](C)c(Cc3ccccc3)c2cc1OC`, the TGI in the test on KM20L2 colon, in the test on M19-MEL melanoma, in the test with SNB-78 CNS, in the test with SF-539 CNS, in the test with TK-10 renal and in the test on DMS 273 small cell lung was above 100 µM throughout.
Consider `CNC(C)Cc1ccccc1O` (stereo unspecified), for which the TGI in the test on KM20L2 colon, with DLD-1 colon, with SNB-78 CNS, with SF-539 CNS, in the test on TK-10 renal and in the test with DMS 273 small cell lung was above 100 µM in each case.
`Nc1ccc2c(c1)C1=NNC(=O)CC1C2` (stereo unspecified): the TGI in the test with MCF7 breast was above 31.6 µM; with KM20L2 colon, above 100 µM; with DLD-1 colon it was above 100 µM; with M19-MEL melanoma, above 100 µM; in the test on SNB-78 CNS, above 100 µM; with SF-539 CNS, above 100 µM. Moreover, the TGI with DMS 273 small cell lung is above 100 µM.
With `CC1SC(c2ccccc2)N(Nc2c3ccccc3nc3ccccc23)C1=O` (stereo unspecified), the TGI with KM20L2 colon, with DLD-1 colon, with M19-MEL melanoma, in the test with SNB-78 CNS, in the test on SF-539 CNS and with DMS 273 small cell lung was above 100 µM in each case.
As for `O=C(N/C(=C\c1ccccc1[N+](=O)[O-])c1nc2ccccc2[nH]1)c1ccccc1`, the TGI in the test with KM20L2 colon, in the test on DLD-1 colon, in the test with M19-MEL melanoma, with SNB-78 CNS, with TK-10 renal and with DMS 273 small cell lung was above 100 µM each time.
On to `CCC(CS(=O)(=O)O)[N+](=O)[O-]` (stereo unspecified), for which the TGI with T-47D breast, with MCF7 breast, with MDA-MB-231 breast, in the test on DU-145 prostate, with BT-549 breast and with MDA-N was above 100 µM in each case. In addition, the TGI in the test on SF-539 CNS and with TK-10 renal was above 100 µM in each case.
`CN1CCN(c2ccc(-c3ccc4ncc(C#N)c(Nc5ccc(F)c(Cl)c5)c4c3)cc2)CC1`: the GI50 in the test with T-47D breast is 1.93 µM; in the test on MCF7 breast it was 3.18 µM; in the test on MDA-MB-231 breast it was 6 µM; in the test on DU-145 prostate it was 0.872 µM; in the test on BT-549 breast it was 3.77 µM; with SF-539 CNS it was 1.86 µM. The GI50 in the test on TK-10 renal was 0.484 µM. The TGI stood at 7.15 µM with T-47D breast; 14.9 µM in the test on MCF7 breast; 28.5 µM with MDA-MB-231 breast; 4.11 µM in the test on DU-145 prostate; 17.9 µM with BT-549 breast; 4.07 µM with SF-539 CNS. This compound also had a TGI in the test with TK-10 renal of 18.8 µM.
Regarding `CN(C)CCNc1ccc2ncnc3c2c1C(=O)c1ccccc1-3`, the TGI in the test on T-47D breast amounted to 24.7 µM; in the test on MCF7 breast it was 2.57 µM; in the test on MDA-MB-231 breast it was 4.1 µM; in the test with BT-549 breast it was 21 µM; in the test on MDA-N, 4.11 µM; in the test on SF-539 CNS, 17 µM. Besides, in the test on TK-10 renal, the TGI came out at 3.92 µM.
`O=[N+]([O-])c1ccc(N=Nc2c(O)ccc3cc(S(=O)(=O)O)ccc23)cc1`: the TGI in the test on T-47D breast, with MDA-MB-231 breast, with DU-145 prostate, in the test on BT-549 breast, in the test with MDA-N and with TK-10 renal was above 100 µM throughout.
Take `C=C(C)[C@@H]1CC[C@]2(C)CC[C@]3(C)[C@H](CC[C@@H]4[C@@]5(C)CC[C@H](OC(=O)c6ccccc6)C(C)(C)[C@@H]5CC[C@]43C)[C@@H]12`: the TGI in the test on T-47D breast, in the test on MCF7 breast, in the test on MDA-MB-231 breast, with DU-145 prostate, with BT-549 breast and in the test on MDA-N was above 100 µM throughout. The TGI in the test on SF-539 CNS and in the test with TK-10 renal was above 100 µM each time.
Take `CO[C@H]1[C@@H](O)[C@@H](C)O[C@@H](O[C@H]2CC[C@@]3(C)[C@H](CC[C@@H]4[C@@H]3CC[C@]3(C)[C@@H](C5=CC(=O)OC5)CC[C@]43O)C2)[C@@H]1O`: the TGI in the test on T-47D breast was 0.222 µM; with MCF7 breast it was 1.1 µM; in the test on MDA-MB-231 breast, 0.269 µM; with DU-145 prostate, 0.00729 µM; with BT-549 breast, 0.0236 µM; in the test on MDA-N, 0.0504 µM. Besides, the TGI was 0.0247 µM in the test with SF-539 CNS and 0.0201 µM in the test on TK-10 renal.
As for `O=c1[nH][nH]c(=O)[nH]1`, the TGI in the test on KM20L2 colon, in the test on DLD-1 colon, in the test with M19-MEL melanoma, in the test on SNB-78 CNS, in the test on SF-539 CNS and in the test on TK-10 renal was above 100 µM in each case. Also, the TGI in the test on DMS 273 small cell lung is above 100 µM.
With `Cc1nc2ccccc2c(=O)n1-c1n[nH]c2ccccc12`, the TGI in the test with T-47D breast, in the test on MCF7 breast, with MDA-MB-231 breast, in the test on DU-145 prostate, in the test on BT-549 breast and in the test with SF-539 CNS was above 100 µM throughout. In addition, the TGI in the test on TK-10 renal was above 100 µM.
As for `CCn1nc(C)c2c1C(=O)NC(C)C(=O)N2` (stereo unspecified), the TGI in the test on DU-145 prostate, in the test with BT-549 breast, with MDA-N, in the test with SF-539 CNS and in the test on TK-10 renal was above 100 µM throughout.
Regarding `CC(CN(C)C)C(=O)c1ccccc1C(=O)O` (stereo unspecified), the TGI was above 100 µM in the test on T-47D breast; above 100 µM in the test with MCF7 breast; 81.6 µM in the test with MDA-MB-231 breast; above 100 µM with DU-145 prostate; 41.7 µM in the test with BT-549 breast; above 100 µM in the test on MDA-N. This compound displayed a TGI with TK-10 renal of 47.7 µM.
